Broadly, the inhibition is the percentage by which the read-out fell short of the control.

Structures are written as SMILES.

We go through one compound from patent publication US5506134A, “Hypridoma and monoclonal antibody which inhibits blood coagulation tissue factor/factor VIIa complex” (Corvas International, Inc., priority 1991, dated 1996).

In the test the target is T1, tissue factor:factor VIIa complex (tissue factor on human bladder carcinoma J-82 cells) (Homo sapiens, UniProt P08709).
T1 construct: endogenous in cells; host or cells: J-82 (ATCC HTB-1) human bladder carcinoma cells: source of the tissue factor only
Nature of the test: Factor X activation chromogenic substrate assay (J-82 cells as source of tissue factor, Spectrozyme Xa). Type of test: biochemical. The note with it: PPACK 1 μM; positive control; 30 min at room temperature, OD-405; read-out: Percent Inhibition of F.X Activation. From the text:
The second screening was used to evaluate the ability of isolated antibodies to inhibit tissue factor catalyzed factor VII activity as reflected by the conversion of factor X to factor Xa. The human bladder carcinoma cell line J-82 (ATCC HTB-1) expresses cell surface-associated tissue factor and is used as the source of tissue factor and phospholipids. A chromogenic substrate for factor Xa is used, which develops color proportional to the amount of factor VIIa activity. Conversely, color is not developed if factor VII activity is blocked. The assay is performed as follows. J-82 cells are suspended in tris-buffered saline at a concentration of 1×10^5 cells per mL. Fifty microliters of cell suspension is added to individual wells of a 96-well polystyrene microliter plate. Fifty microliters of hybridoma culture supernatant diluted at least 1:10 is added to appropriate wells followed by 25 μL of 20 mM CaCl2. Negative control is irrelevant hybridoma culture supernatant (such as anti-tPA supernatant) and positive control is 1 μM PPACK (d-phenylalanine-proline-arginine-chloromethylkefone). Twenty-five microliters of 90 nM factor X and 50 λL of substrate Spectrozyme Xa are added to each well. Following thirty minute incubation at room temperature, OD-405 is determined. […]

T1 sequence (P08709 213-466 limits assumed): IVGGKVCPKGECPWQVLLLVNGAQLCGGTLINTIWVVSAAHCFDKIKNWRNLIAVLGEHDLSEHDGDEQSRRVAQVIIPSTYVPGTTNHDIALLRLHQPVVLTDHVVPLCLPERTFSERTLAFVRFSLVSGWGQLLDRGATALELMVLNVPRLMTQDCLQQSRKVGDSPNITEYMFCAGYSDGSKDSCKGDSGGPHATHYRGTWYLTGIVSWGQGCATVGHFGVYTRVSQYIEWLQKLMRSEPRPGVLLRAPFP
T1 sequence (P08709 61-212 limits assumed): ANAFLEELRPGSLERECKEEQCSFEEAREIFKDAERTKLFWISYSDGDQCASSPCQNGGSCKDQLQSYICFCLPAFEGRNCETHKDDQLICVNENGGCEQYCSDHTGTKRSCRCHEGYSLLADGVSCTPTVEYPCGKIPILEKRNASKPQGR
T1 sequence (P13726 33-295 partner): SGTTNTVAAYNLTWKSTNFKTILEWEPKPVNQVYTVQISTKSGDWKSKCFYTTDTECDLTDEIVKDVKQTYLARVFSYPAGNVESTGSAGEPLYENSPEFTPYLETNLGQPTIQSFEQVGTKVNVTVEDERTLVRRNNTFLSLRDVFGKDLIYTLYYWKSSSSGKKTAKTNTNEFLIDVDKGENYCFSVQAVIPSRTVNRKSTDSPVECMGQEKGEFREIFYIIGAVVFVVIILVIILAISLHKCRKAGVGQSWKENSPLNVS

As to `N=C(N)NCCC[C@H](NC(=O)[C@@H]1CCCN1C(=O)[C@H](N)Cc1ccccc1)C(=O)CCl` [PPACK, d-phenylalanine-proline-arginine-chloromethylkefone], the inhibition at 1 µM was determined as 100%.
